Measured values reported in ChEMBL document CHEMBL3507680, “University of Dundee, Gates Library screen for HepG2 cell viability”.

Experiment: Human HepG2 cell viability assay in 384 well format
Type: toxicity, cell-based
Set-up: dose 125 nL, time 70.5 hour; concentration not given beside the values
Settings: HepG2 cells, read-out: Inhibition

Structure (SMILES)	cytotoxicity at 70.5 h [%]
Cc1cnn(CC2CCCCN2C(=O)c2cnc3n[nH]c(C)c3c2)c1 (stereo not drawn)	-4.13
CSCc1ccc(CNC2CCCN(c3ccc(C)nn3)C2)o1 (stereo not drawn)	-9.42
CCn1ccnc1CN1CCCN(C(=O)Cc2ccc(F)cc2)CC1	17.5
O=C(c1cn(-c2ccccc2)nn1)N1CCCC(n2cccn2)C1 (stereo not drawn)	-3.98
Cc1cnn(CC2CCCN2C(=O)c2cc(C)nc3[nH]nc(C)c23)c1 (stereo not drawn)	-3.88
Cc1ccc(CC(=O)N2CCCN(Cc3nccn3C)CC2)cn1	-1.57
CC(C)c1nc(C2CCCN(C(=O)c3ccc4c(c3)OCO4)C2)no1 (stereo not drawn)	18.1
CCn1cc(C(=O)N2CCCC(c3noc(C)n3)C2)cn1 (stereo not drawn)	-2.74
CC(C)c1nc(C2CCCN(C(=O)c3ccc4nncn4c3)C2)no1 (stereo not drawn)	-5.81
Cc1nc(C2CCCN(C(=O)c3ccc(S(C)(=O)=O)cc3)C2)no1 (stereo not drawn)	-6.59
Cc1nc(C2CCCN(C(=O)c3ccoc3)C2)no1 (stereo not drawn)	-7
COc1ccc(CN2CCCCC2Cn2nc(C)nc2C)cc1F (stereo not drawn)	-1.41
O=C(COCc1ccccc1Cl)N1CCCC(n2ccnc2)C1 (stereo not drawn)	17.5
CCCc1nc(CN2CCN(C(C)c3nc(C4CC4)no3)CC2)no1 (stereo not drawn)	-5.86
Cc1ccc(F)cc1S(=O)(=O)NCc1cccc(C(=O)N2CCCC2)c1	-2.82
O=C(CCc1ccncc1)NCc1csc(Br)c1	-7.74
Cc1ccccc1CN1CCN(C(C)c2nc(C3CC3)no2)CC1 (stereo not drawn)	17
Cc1cnn(CC2CN(Cc3csc(C(C)C)n3)CCO2)c1 (stereo not drawn)	20.8
CCc1n[nH]c(C2CN(C(=O)c3cnn(CC)c3)CCO2)n1 (stereo not drawn)	19.6
COc1ccc(C(=O)N2CCC(Nc3cccnn3)CC2)cn1	13.7

Structure (SMILES)	cytotoxicity at 70.5 h [%]
CCc1n[nH]c(C2CN(C(=O)c3ccc(NC4CC4)nc3)CCO2)n1 (stereo not drawn)	-7.92
Cc1cnn(CC2CCCN2C(=O)c2cc(O)nc3ccccc23)c1 (stereo not drawn)	-7.86
Cc1nc(CN2CCCN(C(=O)c3sccc3C#N)CC2)cs1	0.736
O=C(c1sccc1C1CC1)N1CCN(Cc2cscn2)CC1	5.77
CC(Cn1cccn1)NC(=O)NCc1ccoc1 (stereo not drawn)	-10.1
CC(C)NC(=O)NCc1ccc(C(=O)NC(C)Cn2cccn2)cc1 (stereo not drawn)	-13.2
Cc1ccc(CNC(=O)NC(C)Cn2cccn2)cn1 (stereo not drawn)	-9.6
Cc1ccoc1C(=O)NC1CCN(C(=O)Nc2ccccn2)CC1	-5.66
COc1ccccc1C(=O)N(C)Cc1nnc2ccccn12	-14
COc1ccc(OC)c(C(=O)N(C)Cc2nnc3ccccn23)c1	-15.1
Cn1ccnc1CN1CCN(CC(O)c2cc(F)ccc2F)CC1 (stereo not drawn)	-10.1
CC(c1cccc(F)c1)N1CCN(Cc2nccn2C)CC1 (stereo not drawn)	-9.9
CC(C)c1nc2c(n1C)CCN(CC(=O)Nc1ccnn1C(C)C)C2	0.248
COc1ccc(OCCC(=O)N2CCCC2Cn2cccn2)cc1 (stereo not drawn)	0.4
O=C(c1ccc(O)nc1)N1CCC(Nc2cccnn2)CC1	-8.37
Cc1cnn(CC2CN(Cc3nc4cccnc4[nH]3)CCO2)c1 (stereo not drawn)	7.51
CN(Cc1cnn(C)c1)CC1CCCN1c1cccnn1 (stereo not drawn)	-4.73
CN1CCN(C2CCN(Cc3nnc(C(C)(C)C)o3)CC2)C1=O	-1.9
CC(=O)Nc1nc(CN2CCOC(Cn3cncn3)C2)cs1 (stereo not drawn)	-5.38
COCc1nc(C(=O)N2CCCC2Cn2cc(C)cn2)cs1 (stereo not drawn)	-6.43

Structure (SMILES)	cytotoxicity at 70.5 h [%]
O=C(NCCCNc1ccc(C(F)(F)F)cn1)c1ccc(F)cc1F	-4.42
O=C(NCCNc1ccc(C(F)(F)F)cn1)c1cc(Cl)ccc1F	-4.63
COCCN1CC(C(=O)NCc2cccnc2-n2cccn2)CC1=O (stereo not drawn)	-7.22
CC(C)CN1CC(C(=O)NCc2cccnc2-n2cccn2)CC1=O (stereo not drawn)	-8.02
O=C(CCn1cncn1)NCC(c1ccco1)N1CCCCC1 (stereo not drawn)	7
O=C(c1cc(F)ccc1F)C1CCN(C(=O)c2cnccn2)CC1	-4.44
CC(C)N(Cc1cccc(Cl)c1)Cc1nc2c(cnn2C)c(=O)[nH]1	6.79
CCN(Cc1ccc(F)c(F)c1)Cc1nc2c(cnn2C)c(=O)[nH]1	-4.48
Cc1cnc(C(=O)N2CCC(C(=O)c3cc(F)ccc3F)CC2)cn1	-5.07
COc1cc(CNCc2ccc(NC(=O)NC(C)C)cc2)cc(OC)c1	2.03
CC(C)NC(=O)Nc1ccc(CNCc2cccc(OC(F)F)c2)cc1	29.1
COC(=O)c1cccn1C1CCN(CC(=O)NC2CCCCC2)CC1	-8.68
CN(C)c1ccc(C(=O)N2CCN(Cc3cscn3)CC2)cc1F	-8.39
Cc1cc(C)n(CC2CN(Cc3nc(-c4ccco4)no3)CCO2)n1 (stereo not drawn)	2.57
Cc1ccc(C#N)cc1NC(=O)NC1CCCN(c2ncccn2)C1 (stereo not drawn)	-0.699
c1ccc(C(OCCNC2CCc3ncnn3C2)c2ccccc2)cc1 (stereo not drawn)	-5.27
Cc1cnn(CC2CCCN2C(=O)c2cc3c(F)cccc3[nH]2)c1 (stereo not drawn)	6.2
Cc1ccc(-c2cc(CN3CCOC(Cn4cncn4)C3)on2)cc1 (stereo not drawn)	47.8
